Laboratory results published in PMC7993375, “Discovery of novel quinoline-based analogues of combretastatin A-4 as tubulin polymerisation inhibitors with apoptosis inducing activity and potent anticancer effect” (Journal of Enzyme Inhibition and Medicinal Chemistry, 2021).
Like-named read-outs stand apart in the source and are kept apart here.

Key:
MCF-7 = experiment: MTT cell viability assay, MCF-7 breast adenocarcinoma cells; type: cell-based; settings: Homo sapiens
Experimental: (§1) The four human tumour cell lines MCF-7, HCT-116, HL-60 and HeLa used in this study were obtained from the VACSERA (Giza, Egypt) cell culture unit that were originally acquired from ATCC (Manassas, VA, USA). All the human tumour cell lines were cultured in Dulbecco’s Modified Eagle’s Medium (DMEM) with 10% foetal bovine serum, 2 mM L-glutamine and 100 µg/mL penicillin/streptomycin. Cells were maintained at 37 °C in 5% CO2 in a humidified incubator. All cells were sub-cultured 3 times/week by trypsinisation using TrypLE Express (1X).
(§2) The quinoline compounds were evaluated for antiproliferative effect using the MTT viability assay of four cancer cell lines (MCF-7, HCT-116, HL-60 and HeLa) and normal breast cells MCF-10A to calculate the relative IC50 values for each compound. Cells were seeded in triplicate in 96-well plates at a density of 10 × 10^3 cells/ml in a total volume of 200 µl per well. 0.1% of DMSO was used as a vehicle control. Following, the cells were treated with 2 µl test compound (from stock solutions in ethanol) to furnish the concentration range of study, 1 nM to 50 µM, and re-incubated for a further 72 h. The culture medium was then removed, and the cells washed with 100 µL phosphate buffered saline (PBS) and 50 µL MTT added, to reach a final concentration of 1 mg/mL. Cells were incubated for 2 h in darkness at 37 °C. Solubilisation was begun through the addition of […] DMSO, and the cells maintained at room temperature in darkness for 20 min to ensure thorough colour diffusion before reading the absorbance. Plates were incubated for 72 h at 37 °C + 5% CO2. The MTT (5 mg/mL in PBS) was added and incubated for another 4 h, and the optical density was detected with a microplate reader at 570 nm. Results were expressed as percentage viability relative to vehicle control (100%). Dose response curves were plotted and IC50 values (concentration of drug resulting in 50% reduction in cell survival) were obtained using the commercial software package Prism (GraphPad Software, Inc., La Jolla, CA, USA). All the experiments were repeated in at least three independent experiments.

MCF-10A = experiment: MTT cell viability assay, normal epithelial breast MCF-10A cells; type: cell-based; settings: Homo sapiens, 72 h
Experimental: as §2, with “Dose response curves were plotted and IC50 values (concentration of drug resulting in 50% reduction in cell survival) were obtained using the commercial software package Prism (GraphPad Software, Inc., La Jolla, CA, USA). All the experiments were repeated in at least three independent experiments.” left out

caspase-9 = experiment: Caspase-9 activation assay; type: cell-based, human
Experimental: The level of the anti-apoptotic marker and apoptotic marker BAX were assessed using Bcl-2 Elisa kit and human Bax ELISA Kit purchased from Zymed laboratories, invitrogen and Cloud-Clone Crop. (Katy, TX, USA), respectively, following the manufacturer’s instructions. Briefly, Treated MCF-7 cell lysate with 250 nM of compound 12c were prepared, and equal amount of cell lysates were loaded and propped with specific antibodies. The samples were measured and analysed at 450 nm in ROBONEK P2000 ELISA reader. In Vitro Caspase-9 Activation Assay was performed using human active caspase-9 Invitrogen EIA kit according to the manufacturer’s instructions. Compound 12c at concentrations of 50 and 250 nM and CA-4 (50 nM) were prepared in dH2O up to a final volume of 50 µL/well followed by addition of 5 µL of active caspase-9. Following, the cells were mixed and 50 µL of the Master Mix was added to each well and allowed to react at 37 °C for 1 h. The fluorescence intensity of the test samples was recorded and analysed in a fluorescence plate reader at 400 nm excitation and 505 nm emissions. All experiments were conducted in triplicates.

MCF-7 cells [1] = experiment: Annexin V/PI apoptotic assay; type: cell-based, human; settings: for percentage of Annexin V-staining positive cells: 48 h, untreated 1%; for percentage of early and late apoptotic cells: 72 h, untreated 2%
Experimental: Apoptotic cell death was detected by flow cytometry using Annexin V and propidium iodide (PI). […] Cells were then harvested and prepared for flow cytometric analysis. Cells were washed in 1X binding buffer (20X binding buffer: 0.1 M HEPES, pH 7.4; 1.4 M NaCl; 25 mM CaCl2 diluted in dH2O) and incubated in the dark for 30 min on ice in Annexin V-containing binding buffer [1:100]. Cells were then washed once in binding buffer and then re-suspended in PI-containing binding buffer [1:1000]. Samples were analysed immediately using the BD accuri flow cytometer and prism software for analysis the data. Four populations are produced during the assay Annexin V and PI negative (Q4, healthy cells), Annexin V positive and PI negative (Q3, early apoptosis), Annexin V and PI positive (Q2, late apoptosis) and Annexin V negative and PI positive (Q1, necrosis).

HL-60 = experiment: MTT cell viability assay, HL-60 leukaemia cells; type: cell-based; settings: Homo sapiens
Experimental: as §1, §2

MCF-7 cells [2] = experiment: Cell cycle analysis (PI, flow cytometry); type: cell-based, human; settings: for percentage of cells in G0/G1 phase: control 57.3%
Experimental: MCF-7 cells were seeded at a density of 1 × 10^5 cells/well in 6-well plates and treated with CA-4 (50 nM) and compound 12c (50 and 250 nM) for 24, 48 and 72 h. The cells were collected by trypsinisation and centrifuged at 800×g for 15 min. Cells were washed twice with ice-cold PBS and fixed in ice-cold 70% ethanol overnight at −20 °C. Fixed cells were centrifuged at 800×g for 15 min and stained with 50 µg/mL of PI, containing 50 µg/mL of DNase-free RNase A, at 37 °C for 30 min. The DNA content of cells (10,000 cells/experimental group) was analysed by flow cytometer at 488 nm using a FACSCalibur flow cytometer (BD Biosciences, San Jose, CA) and all data were recorded and analysed using the CellQuest Software (Becton-Dickinson).

bovine brain tubulin = experiment: Tubulin polymerisation assay; type: biochemical; settings: Tubulin was at 10 µM; read-out: Tubulin assembly IC50 (inhibition of tubulin polymerisation)
Experimental: The assembly of purified bovine tubulin was monitored using a kit, BK006, purchased from Cytoskeleton Inc., (Denver, CO, USA). The assay was carried out in accordance with the manufacturer’s instructions using the standard assay conditions. Briefly, purified ([…]) in a buffer consisting of 80 mM PIPES (pH 6.9), 0.5 mM EGTA, 2 mM MgCl2, 1 mM GTP and 10% glycerol was incubated at 37 °C in the presence of either vehicle (2% (v/v) ddH2O), CA-4, or the quinoline compounds. Light is scattered proportionally to the concentration of polymerised microtubules in the assay. Therefore, tubulin assembly was monitored turbidimetrically at 340 nm in a Spectramax 340 PC spectrophotometer (Molecular Devices, Sunnyvale, CA, USA). The concentration that inhibits tubulin polymerisation by 50% (IC50) was determined using area under the curve (AUC). The AUC of the untreated controls were considered as 100% polymerisation. The IC50 value for each compound was computed using GraphPad Prism Software.

[3] = MCF7, 72 h, read-out: IC50 value, MCF-7
[4] = 72 h, read-out: IC50 value, HL-60

In the case of COc1ccc(/C=C\c2cc(OC)c(OC)c(OC)c2)cc1O [CA-4, Combretastatin A-4], the IC50 (MCF-7; [3]) is reported as 19 ± 4 nM, the IC50 (MCF-10A) is reported as 6100 nM and the “increase in caspase-9 activation” value (caspase-9; MCF-7, 50 nM) is reported as 14 fold. The “percentage of Annexin V-staining positive cells” value (MCF-7 cells [1]; 50 nM) was 29%, the IC50 (HL-60; [4]) was 76 ± 4 nM and the “apoptosis, proportion of cells in sub-G1 phase” value (“apoptosis, proportion of cells” below) (MCF-7 cells [2]; 50 nM, 24 h) was 23.5%. For the same molecule, the “percentage of cells in G2/M phase” value (MCF-7 cells [2]; 50 nM, 24 h) was 40.3%, the “apoptosis, proportion of cells” value (MCF-7 cells [2]; 50 nM, 48 h) was 31.1% and the “percentage of cells in G2/M phase” value (MCF-7 cells [2]; 50 nM, 48 h, untreated 9.2%) was 43.8%. For the same molecule, the “apoptosis, proportion of cells” value (MCF-7 cells [2]; 50 nM, 72 h) was 37.4%, the “percentage of cells in G2/M phase” value (MCF-7 cells [2]; 50 nM, 72 h) was 47.7% and the IC50 (bovine brain tubulin) was […].
Work on COc1cc(C2=NC(=Cc3cc4ccc(C)cc4nc3OC)C(=O)O2)cc(OC)c1OC [Compound 12c, 4-[(2-Methoxy-7-methylquinolin-3-yl)methylene]-2–(3,4,5-trimethoxyphenyl) oxazol-5(4H)-one] yielded an IC50 (MCF-7; [3]) of 10 ± 3 nM, an IC50 (MCF-7; MCF7, read-out: IC50, MCF-7) of 19 nM and an IC50 (MCF-10A) of over 50000 nM. For the same molecule, the “increase in caspase-9 activation” value (caspase-9; MCF-7, 50 nM) was “about 8 fold”, the “increase in caspase-9 activation” value (caspase-9; MCF-7, 250 nM) was about 16 fold and the “percentage of Annexin V-staining positive cells” value (MCF-7 cells [1]; 250 nM) was 21%. The “percentage of Annexin V-staining positive cells” value (MCF-7 cells [1]; concentration printed as 0 nM) was 15%, the “percentage of early and late apoptotic cells” value (MCF-7 cells [1]; concentration printed as 1 µM) was 17.6% and the “percentage of early and late apoptotic cells” value (MCF-7 cells [1]; concentration printed as 5 µM) was 29.3%. The IC50 (HL-60; [4]) was 19 nM, the IC50 (HL-60; read-out: IC50, HL-60) was 10 nM and the “percentage of cells in G2/M phase” value (MCF-7 cells [2]; 50 nM, 48 h, untreated 9.2%) was 28.4%. For the same molecule, the “percentage of cells in G2/M phase” value (MCF-7 cells [2]; 50 nM, 72 h) was 33.0%, the “percentage of cells in G0/G1 phase” value (MCF-7 cells [2]; 50 nM, 72 h) was 40.3% and the “apoptosis, proportion of cells” value (MCF-7 cells [2]; 250 nM, 24 h, untreated 1.5%) was 16.2%. For the same molecule, the “apoptosis, proportion of cells” value (MCF-7 cells [2]; 250 nM, 48 h, untreated 1.5%) was 23.4%, the “percentage of cells in G2/M phase” value (MCF-7 cells [2]; 250 nM, 48 h, untreated 9.2%) was 38.3% and the “percentage of cells in G2/M phase” value (MCF-7 cells [2]; 250 nM, 72 h) was 40.8%. The “percentage of cells in G0/G1 phase” value (MCF-7 cells [2]; 250 nM, 72 h) was 29.8%, the “apoptosis, proportion of cells” value (MCF-7 cells [2]; 250 nM, 72 h, untreated 1.5%) was 32.7% and the IC50 (bovine brain tubulin) was 1210 nM.
